Values quoted from earlier work, collected in article PMC6631257.

Test system: CYP2D6

Row | Compound | CYP2D6 inhibitor strength
1 | Fc1ccc([C@@H]2CCNC[C@H]2COc2ccc3c(c2)OCO3)cc1 [paroxetine] | strong
2 | COc1ccc([C@@H]2Sc3ccccc3N(CCN(C)C)C(=O)[C@@H]2OC(C)=O)cc1 [diltiazem] | weak inhibitor
3 | CNCCC(Oc1ccc(C(F)(F)F)cc1)c1ccccc1 (stereo not drawn) [fluoxetine] | strong
